Measured values published in the supplement of paper PMC10307832.

How the values were obtained:
Assay in all cases: relative viability (nuclei count vs DMSO), 5 days (fraction); higher = more cells survive
BEN = system: BEN
Method in brief: (§1)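 Relative viability divides the nuclei count in treated wells by that in vehicle wells. Lung cancer cell lines were seeded in 1536-well plates, dosed by pin tool the next day, and fixed and stained after 5 days in one step with final 0.05% Triton X-100, 1% formaldehyde and 1 ug/ml Hoechst. Dosing was a single drug or a fixed anchor-drug dose plus five library-drug doses (not always all listed) in √10 steps, and values are medians of duplicate plates imaged at 4×.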

NCI-H2126 = system: NCI-H2126
Method in brief: as §1

201T = system: 201T
Method in brief: as §1

NCI-H838 = system: NCI-H838
Method in brief: as §1

NCI-H596 = system: NCI-H596
Method in brief: as §1

NCI-H727 = system: NCI-H727
Method in brief: as §1

NCI-H1666 = system: NCI-H1666
Method in brief: as §1

NCI-H2347 = system: NCI-H2347
Method in brief: as §1

NCI-H441 = system: NCI-H441
Method in brief: as §1

NCI-H2009 = system: NCI-H2009
Method in brief: as §1

NCI-H3122 = system: NCI-H3122
Method in brief: as §1

## C=C1C(=O)O[C@@H](CCCCCCCC)[C@@H]1C(=O)O [C-75] + C[C@@H](Oc1cc(-c2cnn(C3CCNCC3)c2)cnc1N)c1c(Cl)ccc(F)c1Cl [Crizotinib] (partner 1 µM)
BEN; first compound 0.08 µM
  relative viability: 0.897
BEN; first compound 0.253 µM
  relative viability: 0.952
BEN; first compound 0.8 µM
  relative viability: 0.921
BEN; first compound 2.53 µM
  relative viability: 0.755
BEN; first compound 8 µM
  relative viability: 0.825
NCI-H2126; first compound 0.08 µM
  relative viability: 1.04
NCI-H2126; first compound 0.253 µM
  relative viability: 1.07
NCI-H2126; first compound 0.8 µM
  relative viability: 1.01
NCI-H2126; first compound 2.53 µM
  relative viability: 0.735
NCI-H2126; first compound 8 µM
  relative viability: 0.972
201T; first compound 0.08 µM
  relative viability: 1.05
201T; first compound 0.253 µM
  relative viability: 1.05
201T; first compound 0.8 µM
  relative viability: 1.01
201T; first compound 2.53 µM
  relative viability: 0.966
201T; first compound 8 µM
  relative viability: 1.05
NCI-H838; first compound 0.08 µM
  relative viability: 0.786
NCI-H838; first compound 0.253 µM
  relative viability: 0.561
NCI-H838; first compound 0.8 µM
  relative viability: 0.807
NCI-H838; first compound 2.53 µM
  relative viability: 0.792
NCI-H838; first compound 8 µM
  relative viability: 0.789
NCI-H596; first compound 0.08 µM
  relative viability: 1.01
NCI-H596; first compound 0.253 µM
  relative viability: 0.937
NCI-H596; first compound 0.8 µM
  relative viability: 0.794
NCI-H596; first compound 2.53 µM
  relative viability: 0.875
NCI-H596; first compound 8 µM
  relative viability: 1.03
NCI-H727; first compound 0.08 µM
  relative viability: 0.825
NCI-H727; first compound 0.253 µM
  relative viability: 1.2
NCI-H727; first compound 0.8 µM
  relative viability: 0.772
NCI-H727; first compound 2.53 µM
  relative viability: 0.57
NCI-H727; first compound 8 µM
  relative viability: 1.11
NCI-H1666; first compound 0.08 µM
  relative viability: 1.19
NCI-H1666; first compound 0.253 µM
  relative viability: 1.21
NCI-H1666; first compound 0.8 µM
  relative viability: 0.928
NCI-H1666; first compound 2.53 µM
  relative viability: 0.847
NCI-H1666; first compound 8 µM
  relative viability: 0.614
NCI-H2347; first compound 0.08 µM
  relative viability: 0.735
NCI-H2347; first compound 0.253 µM
  relative viability: 0.752
NCI-H2347; first compound 0.8 µM
  relative viability: 0.63
NCI-H2347; first compound 2.53 µM
  relative viability: 0.711
NCI-H2347; first compound 8 µM
  relative viability: 0.648
NCI-H441; first compound 0.08 µM
  relative viability: 0.857
NCI-H441; first compound 0.253 µM
  relative viability: 0.762
NCI-H441; first compound 0.8 µM
  relative viability: 0.556
NCI-H441; first compound 2.53 µM
  relative viability: 0.46
NCI-H441; first compound 8 µM
  relative viability: 0.585
NCI-H2009; first compound 0.08 µM
  relative viability: 1.04
NCI-H2009; first compound 0.253 µM
  relative viability: 1.01
NCI-H2009; first compound 0.8 µM
  relative viability: 0.987
NCI-H2009; first compound 2.53 µM
  relative viability: 0.78
NCI-H2009; first compound 8 µM
  relative viability: 0.968
NCI-H3122; first compound 0.08 µM
  relative viability: 0.26
NCI-H3122; first compound 0.253 µM
  relative viability: 0.254
NCI-H3122; first compound 0.8 µM
  relative viability: 0.3
NCI-H3122; first compound 8 µM
  relative viability: 0.269
